The target in series [1] is T1, purified recombinant HIV-1 reverse transcriptase (Human immunodeficiency virus type 1 group M subtype B, UniProt P04585).
T1 construct: purified recombinant HIV-1 reverse transcriptase (RT, EC, 2.7.7.49); made in house; host or cells: Escherichia coli
Nature of the series: Inhibition of HIV-1 reverse transcriptase enzyme ([3H]-SPA or flashplate assay). In kind it is biochemical. Conditions: recombinant RT expressed in Escherichia Coli; Poly(rA)-oligo(dT) [3H]-SPA or [3H]-flashplate assay; 5% final DMSO; read-out: IC50 (concentration at which the compound inhibited the reverse transcriptase by 50%). The text has this:
A. Inhibition of HIV-1 Reverse Transcriptase Enzyme
The reverse transcriptase activity of the compounds of the invention may be assayed as following. Using the purified recombinant HIV-1 reverse transcriptase (RT, EC, 2.7.7.49) obtained by expression in Escherichia Coli, a 96-well plate assay system was established for assaying a large number of samples using either the Poly(rA)-oligo(dT) Reverse Transcriptase [3H]-SPA enzyme assay system (Amersham NK9020) or the [3H]-flashplate enzyme assay system (NEN-SMP 103) and following the manufacturer's recommendations. The compounds were dissolved in 100% DMSO and diluted with the appropriate buffer to a 5% final DMSO concentration. The inhibitory activity was expressed in percent inhibition relative to the DMSO control.

Results on four compounds are retold here after US8063044B2, “Pyrazole derivatives” (Pfizer Inc., priority 2001, dated 2011).

On to `CCc1nn(CC#N)c(CC)c1Oc1cc(Cl)cc(Cl)c1`, for which the melting point (as a rule, the temperature of the solid-liquid transition) is 70 to 72 °C.
Turning to `CCc1nn(Cc2cc(=O)[nH]c(N)n2)c(CC)c1Oc1cc(Cl)cc(Cl)c1` [Example 7, 2-Amino-6-{[4-(3,5-dichlorophenoxy)-3,5-diethyl-1H-pyrazol-1-yl]methyl}-4(3H)-pyrimidinone], the IC50 in series [1] worked out at 39 µM.
The same measure, in the same setting: as for `CCc1nn(CCO)c(CC)c1Oc1c(C)cc(C#N)cc1C` [Example 20], the figure is 3.2 µM; as for `CCc1nn(C2CNC2)c(CC)c1Oc1cc(Cl)cc(Cl)c1` [Example 51, 1-(3-Azetidinyl)-4-(3,5-dichlorophenoxy)-3,5-diethyl-1H-pyrazole], 0.248 µM.
